Results on one compound are retold here after US7541020B2, “Aminoalkyl glucosaminide phosphate compounds and their use as adjuvants and immunoeffectors” (priority 1997, dated 2009).

Where “and” joins values, the source holds several entries; their conditions need not be identical. Equal entries are not always repeated. Where two headings read alike, the source gives them in different places.

The test system of data set [1] is tetanus toxoid. More on the design: species or system BFD1 (C57B1/6X DBA/2) female mice. Conditions: mouse, in vivo.
A further data set relates to influenza A/HK/68. It counts as in vivo, ICR mice. The note with it: Table 11.
Another data set relates to TNF-α. The data set can be described thus: Cytokine induction in human whole blood ex vivo culture: TNF-α (ELISA). Conditions: 4 hr, Table 19. It counts as cell-based. The procedure: (§1) AGP compounds were solubilized in 10% EtOH-water and diluted to various concentrations. Fifty μl of each dilution were added to 450 μl of whole human blood. Controls were treated with culture media (RPMI). The reaction mixture was incubated at 37° C. for 4 hr with constant mixing on a rotator. Sterile PBS (1.5 ml) was added to the reaction mixture, the cells were centrifuged and the supernatents removed for cytokine testing. The concentration of TNF-α and IL-1β in each supernatent was determined using immunoassay ELISA kits from R&D Systems.
Background: ELISA stands for enzyme-linked immunosorbent assay.

The next data set relates to IL-1β. The data set can be described thus: Cytokine induction in human whole blood ex vivo culture: IL-1β (ELISA). The data set is classed as cell-based. Conditions: 4 hr, Table 19. As for the experimental part:
as §1

Data set [2] deals with tetanus toxoid. The note with it: mouse, in vivo, sc.
The next data set deals with E.G7 (OVA) cells. Conditions: s.c. 25 μg OVA in AGP preparation, spleen cells 21 days later.
Setting [3] is: 25 μg AGP + 1 HAU FI-Flu in 0.2% TEoA, once, bled day 14.

Take `CCCCCCCCCCCC(=O)O[C@H](CCCCCCCCCCC)CC(=O)N[C@H]1[C@H](OC[C@H](NC(=O)C[C@@H](CCCCCCCCCCC)OC(=O)CCCCCCCCCCC)C(=O)O)O[C@H](CO)[C@@H](OP(=O)(O)O)[C@@H]1OC(=O)C[C@@H](CCCCCCCCCCC)OC(=O)CCCCCCCCCCC.CCN(CC)CC` [B12, N-[(R)-3-Dodecanoyloxytetradecanoyl]-o-[2-Deoxy-4-O-phosphono-2-[(R)-3-dodecanoyloxytetradecanoylamino]-3-O-[(R)-3-dodecanoyloxytetradecanoyl]-β-D-glucopyranosyl]-L-serine Triethylammonium Salt]: in the data set on tetanus toxoid [1], the “IgG1 T/C” value is 90.08 and 141.22 and 145.21 and 81.12 and 84.11; the “IgG1 Titer” value was 165,486 and 259,429 and 266,743 and 149,029 and 154,514; the “Total Ig T/C” value is 326.02 and 368.55 and 403.98 and 248.06 and 489.92; the “Total Ig Titer” value is 42,057 and 47,543 and 52,114 and 32,000 and 63,200. In addition, in the data set with influenza A/HK/68 (setting [3]), the “Titer^−1 IgG1” value was found to be 200, the “Titer^−1 IgG2a” value is reported as 100, the “Titer^−1 IgG2b” value was 200 and the “Titer^−1 Total IgG” value is on record as 200. Moreover, the “Percent Survival” value in the data set on influenza A/HK/68 ([…], mortality 21 days) is 0%. The TNF-α in the data set with TNF-α (Dosage 1000 ng/ml) was 863 pg/mL. The same compound yielded a TNF-α in the data set on TNF-α (Dosage 5000 ng/ml) of 957 pg/mL. The TNF-α with TNF-α (Dosage 10,000 ng/ml) stood at 1017 pg/mL. The same compound registered an IL-1β in the data set with IL-1β (Dosage 1000 ng/ml) of 175 pg/mL. The IL-1β in the data set with IL-1β (Dosage 5000 ng/ml) is 153 pg/mL. The compound further gave an IL-1β with IL-1β (Dosage 10,000 ng/ml) of 135 pg/mL. Also, in the data set on tetanus toxoid [2], the “Anti-tetanus toxoid IgG2a T/C” value was determined as 139.4, the “Anti-tetanus toxoid IgG2a titer” value is given as 2370, the “Anti-tetanus toxoid IgG2b T/C” value is 149 and the “Anti-tetanus toxoid IgG2b titer” value was found to be 9840. In the data set on tetanus toxoid [2], the “Anti-tetanus toxoid IgM T/C” value is given as 3.1 and the “Anti-tetanus toxoid IgM titer” value is listed as 4800. For the same compound, the “% Cytotoxicity” value in the data set on E.G7 (OVA) cells (E:T 12.5:1) came out at 4%. The “% Cytotoxicity” value in the data set on E.G7 (OVA) cells (E:T 25:1) came out at 7%. For the same compound, the “% Cytotoxicity” value in the data set on E.G7 (OVA) cells (E:T 50:1) is 13%.
